Laboratory results taken from patent US6489469B1, “Method for storing or transporting erythritol solution” (Nikken Chemicals Co., Ltd., priority 1999, dated 2002).

What was measured:
[1] = system: Bacillus subtilis IFO 3134; assay: Viable Count of Bacillus subtilis IFO 3134 in Erythritol Solution; type: cell-based
Description: Erythritol solutions of respective concentrations in the range of from 30 to 60% were prepared. To these were inoculated Staphylococcus aureus IFO 13276, Bacillus subtilis IFO 3134, and Escherichia coli IFO 3972 as bacteria, Candida albicans IFO 1549 and Saccharomyces cerevisiae ATCC 9763 as yeasts, Aspergillus niger IFO 6342, Aspergillus flavus IFO 6343, and Penicillium funiculosum IFO 6345 as fungi, respectively, in a population (concentration) of 10,000 cells/mL or more. After the inoculation, the solutions were stored at 30, 37, 45, 50, or 60° C., respectively, for 56 days and the number of viable cell was determined daily. The determination of the number of viable cell was performed by a method of coating 0.1 mL of appropriately diluted sample cultivation on an agar plate and cultivating and counting the number of viable cell (the number of colony) that grew after the cultivation.

[2] = system: Bacillus stearothermophilus IFO 12550; assay: Viable Count of Bacillus stearothermophilus IFO 12550 in Erythritol Solution (heat resistant bacteria); type: cell-based; details: 50° C.
Description: Erythritol solutions of respective concentrations in the range of from 30 to 70% were prepared. To these was inoculated Bacillus stearothermophilus IFO 12550 as a heat resistant bacterium in a population (concentration) of 10,000 cells/mL or more.
After the inoculation, the solutions were stored at 50, 60 or 75° C., respectively, for 56 days and the number of viable cell was determined daily. The determination of the number of viable cell was performed by in the same manner as in Example 1.

## OC[C@@H](O)[C@@H](O)CO [Erythritol Solution, erythritol]
[1]; 30° C., 30% w/w, Day 0
  The Number of Viable Cell: 10000 or more cells/mL
[1]; 30° C., 30% w/w, Day 3
  The Number of Viable Cell: 2980 cells/mL
[1]; 30° C., 30% w/w, Day 7
  The Number of Viable Cell: 440 cells/mL
[1]; 30° C., 30% w/w, Day 14
  The Number of Viable Cell: 110 cells/mL
[1]; 30° C., 30% w/w, Day 28
  The Number of Viable Cell: 750 cells/mL
[1]; 30° C., 30% w/w, Day 56
  The Number of Viable Cell: 0 cells/mL
[1]; 30° C., 40% w/w, Day 0
  The Number of Viable Cell: 10000 or more cells/mL
[1]; 30° C., 40% w/w, Day 3
  The Number of Viable Cell: 300 cells/mL
[1]; 30° C., 40% w/w, Day 7
  The Number of Viable Cell: 0 cells/mL
[1]; 30° C., 40% w/w, Day 14
  The Number of Viable Cell: 20 cells/mL
[1]; 30° C., 40% w/w, Day 28
  The Number of Viable Cell: 0 cells/mL
[1]; 30° C., 40% w/w, Day 56
  The Number of Viable Cell: 0 cells/mL
[1]; 37° C., 30% w/w, Day 0
  The Number of Viable Cell: 10000 or more cells/mL
[1]; 37° C., 30% w/w, Day 3
  The Number of Viable Cell: 170 cells/mL
[1]; 37° C., 30% w/w, Day 7
  The Number of Viable Cell: 11500 cells/mL
[1]; 37° C., 30% w/w, Day 28
  The Number of Viable Cell: 1000 cells/mL
[1]; 37° C., 30% w/w, Day 56
  The Number of Viable Cell: 0 cells/mL
[1]; 37° C., 40% w/w, Day 0
  The Number of Viable Cell: 10000 or more cells/mL
[1]; 37° C., 40% w/w, Day 3
  The Number of Viable Cell: 0 cells/mL
[1]; 37° C., 40% w/w, Day 7
  The Number of Viable Cell: 0 cells/mL
[1]; 37° C., 40% w/w, Day 14
  The Number of Viable Cell: 0 cells/mL
[1]; 37° C., 40% w/w, Day 28
  The Number of Viable Cell: 0 cells/mL
[1]; 37° C., 40% w/w, Day 56
  The Number of Viable Cell: 0 cells/mL
[1]; 45° C., 30% w/w, Day 0
  The Number of Viable Cell: 10000 or more cells/mL
[1]; 45° C., 30% w/w, Day 7
  The Number of Viable Cell: 110 cells/mL
[1]; 45° C., 30% w/w, Day 14
  The Number of Viable Cell: 0 cells/mL
[1]; 45° C., 30% w/w, Day 28
  The Number of Viable Cell: 0 cells/mL
[1]; 45° C., 30% w/w, Day 56
  The Number of Viable Cell: 0 cells/mL
[1]; 45° C., 50% w/w, Day 0
  The Number of Viable Cell: 10000 or more cells/mL
[1]; 45° C., 50% w/w, Day 3
  The Number of Viable Cell: 30 cells/mL
[1]; 45° C., 50% w/w, Day 7
  The Number of Viable Cell: 0 cells/mL
[1]; 45° C., 50% w/w, Day 14
  The Number of Viable Cell: 0 cells/mL
[1]; 45° C., 50% w/w, Day 28
  The Number of Viable Cell: 0 cells/mL
[1]; 45° C., 50% w/w, Day 56
  The Number of Viable Cell: 0 cells/mL
[1]; 50° C., 30% w/w, Day 0
  The Number of Viable Cell: 10000 or more cells/mL
[1]; 50° C., 30% w/w, Day 3
  The Number of Viable Cell: 0 cells/mL
[1]; 50° C., 30% w/w, Day 7
  The Number of Viable Cell: 0 cells/mL
[1]; 50° C., 30% w/w, Day 14
  The Number of Viable Cell: 0 cells/mL
[1]; 50° C., 30% w/w, Day 28
  The Number of Viable Cell: 0 cells/mL
[1]; 50° C., 30% w/w, Day 56
  The Number of Viable Cell: 0 cells/mL
[1]; 50° C., 40% w/w, Day 0
  The Number of Viable Cell: 10000 or more cells/mL
[1]; 50° C., 40% w/w, Day 3
  The Number of Viable Cell: 0 cells/mL
[1]; 50° C., 40% w/w, Day 7
  The Number of Viable Cell: 0 cells/mL
[1]; 50° C., 40% w/w, Day 14
  The Number of Viable Cell: 0 cells/mL
[1]; 50° C., 40% w/w, Day 28
  The Number of Viable Cell: 0 cells/mL
[1]; 50° C., 40% w/w, Day 56
  The Number of Viable Cell: 0 cells/mL
[1]; 50° C., 50% w/w, Day 0
  The Number of Viable Cell: 10000 or more cells/mL
[1]; 50° C., 50% w/w, Day 3
  The Number of Viable Cell: 0 cells/mL
[1]; 50° C., 50% w/w, Day 7
  The Number of Viable Cell: 0 cells/mL
[1]; 50° C., 50% w/w, Day 14
  The Number of Viable Cell: 0 cells/mL
[1]; 50° C., 50% w/w, Day 28
  The Number of Viable Cell: 0 cells/mL
[1]; 50° C., 50% w/w, Day 56
  The Number of Viable Cell: 0 cells/mL
[1]; temperature of 50° C. or more
  growth of the microbes: prevented from growing
  time after which microbes died: 3 days
[2]; 30% w/w, Day 0
  The Number of Viable Cell: 10000 or more cells/mL
[2]; 30% w/w, Day 3
  The Number of Viable Cell: 70 cells/mL
[2]; 30% w/w, Day 7
  The Number of Viable Cell: 60 cells/mL
[2]; 30% w/w, Day 14
  The Number of Viable Cell: 40 cells/mL
[2]; 30% w/w, Day 28
  The Number of Viable Cell: 60 cells/mL
[2]; 30% w/w, Day 56
  The Number of Viable Cell: 50 cells/mL
[2]; 40% w/w, Day 0
  The Number of Viable Cell: 10000 or more cells/mL
[2]; 40% w/w, Day 3
  The Number of Viable Cell: 40 cells/mL
[2]; 40% w/w, Day 7
  The Number of Viable Cell: 50 cells/mL
[2]; 40% w/w, Day 14
  The Number of Viable Cell: 50 cells/mL
